Results: patent US20100190968A1, “OLEANANE TRITERPENE SAPONIN COMPOUNDS WHICH ARE EFFECTIVE ON TREATMENT OF DEMENTIA AND MILD COGNITIVE IMPAIRMENT (MCI) AND IMPROVEMENT OF COGNITIVE FUNCTION” (priority 2006, published 2010)

System: mice
Assay: Passive avoidance test (scopolamine-induced memory decline)
Assay type: in vivo, mouse
Conditions: scopolamine 1 mg/kg; for Retention time: measured up to 300 seconds
Experimental: Passive avoidance test was performed to identify the memory improvement effect of the above 8 oleanolic acid saponin or hederagenin saponin substances in the body. Also, oleanolic acid and hederagenin, aglycons of the saponin compounds, were included in the test. A shuttle box measuring 50 cm×15 cm×40 cm was used. The box was divided into two compartments by a guillotine door. One compartment was brightly illuminated and the other was covered by black cloth. A mouse was placed in the illuminated compartment. Then, when the guillotine door was open, the mouse moved into the dark compartment within 20 seconds because it prefers darkness. The guillotine door was closed automatically as soon as the mouse entered the dark compartment. In this way, the latency time, or the time that elapsed until a mouse left the illuminated compartment and entered the dark compartment, was determined. On the first day, this training trial was performed until all the mice entered the dark compartment within 20 seconds. On the following day, the trained mice were placed in the illuminated compartment, one at a time, and were allowed to move into the dark compartment. When the mice entered the dark compartment, a foot-shock (0.8 mA, 3 seconds) was delivered through the electronic grid equipped on the floor of the dark compartment. 24 hours after this acquisition trial, the mice were placed in the illuminated compartment and were allowed to move into the dark compartment. Then, normal mice hesitated to move into the dark compartment remembering the shock of the day before. The time elapsed until the mice entered the dark compartment was measured up to 300 seconds. Retention time was measured to evaluate the memory improvement effect. Neither scopolamine nor the drug was administered to the control group. Scopolamine (1 mg/kg), which is known to decline memory function by inhibiting the transfer of neurotransmitters, was administered. An hour later, saponin (30 mg/kg) and aglycon (30 mg/kg), […] (donepezil, 1 mg/kg, positive control) and water (negative control) were administered.

[1] = saponin or aglycon 30 mg/kg administered once orally 1 hour later, 24 hours after acquisition trial
[2] = saponin or aglycon 30 mg/kg 1 hour later

Compound | Retention time [1] [s] | other results
3-O-β-D-Xylopyranosyl(1→2)-β-D-galactopyranosyl(1→3)-β-D-glucolopyranosyloleanolic acid [Elatoside A] | 166.0 ± 24.8 | 
3-O-β-D-Xylopyranosyl(1→2)-β-D-galactopyranosyl(1→3)-β-D-glucolopyranosyloleanolic acid-28-O-β-D-glucopyranosyl ester [Elatoside C] | 160.1 ± 15.6 | 
COc1cc2c(cc1OC)C(=O)C(CC1CCN(Cc3ccccc3)CC1)C2 (centres unmarked) [Aricept, donepezil, reference compound] |  | times longer retention time than the negative control group (water) (Aricept 1 mg/kg orally 1 hour later): 1.6 times; Retention time (Aricept (donepezil) 1 mg/kg orally 1 hour later, positive control): 98.5 ± 10.6 s
C[C@@H]1O[C@@H](O[C@H]2[C@H](O[C@H]3CC[C@]4(C)[C@H]5CC=C6[C@@H]7CC(C)(C)CC[C@]7(C(=O)O)CC[C@@]6(C)[C@]5(C)CC[C@H]4C3(C)C)OC[C@H](O)[C@@H]2O)[C@H](O)[C@H](O)[C@H]1O [Eleutheroside K, 3-O-α-L-Rhamnopyranosyl(1→2)-α-L-arabinopyranosyloleanolic acid] | 182.6 ± 15.9 | 
CC1OC(OC2C(CO)OC(OCC3OC(OC(=O)C45CCC(C)(C)CC4C4=CCC6C7(C)CCC(OC8OCC(OC9OC(CO)C(O)C(O)C9OC9OC(C)C(O)C(O)C9O)C(O)C8O)C(C)(C)C7CCC6(C)C4(C)CC5)C(O)C(O)C3O)C(O)C2O)C(O)C(O)C1O [Hederacolchiside E, 3-O-α-L-Rhamnopyranosyl(1→2)-β-D-glucopyranosyl(1→4)-α-L-arabinopyranosyloleanolic acid-28-O-α-L-rhamnopyranosyl(1→4)-β-D-glucopyranosyl(1→6)-β-D-glucopyranosyl ester] | 155.7 ± 31.2 | 
CC1(C)CC[C@]2(C(=O)O)CC[C@]3(C)C(=CC[C@@H]4[C@@]5(C)CC[C@H](O)[C@@](C)(CO)[C@@H]5CC[C@]43C)[C@@H]2C1 [Hederagenin, hederagenin, reference compound] | 142.8 ± 32.6 | times longer retention time than the negative control group (water) [2]: 2.3 times
C[C@@H]1O[C@@H](O[C@H]2[C@H](O[C@H]3CC[C@]4(C)[C@H]5CC=C6[C@@H]7CC(C)(C)CC[C@]7(C(=O)O[C@@H]7O[C@H](CO[C@@H]8O[C@H](CO)[C@@H](O[C@@H]9O[C@@H](C)[C@H](O)[C@@H](O)[C@H]9O)[C@H](O)[C@H]8O)[C@@H](O)[C@H](O)[C@H]7O)CC[C@@]6(C)[C@]5(C)CC[C@H]4C3(C)C)OC[C@H](O)[C@@H]2O)[C@H](O)[C@H](O)[C@H]1O [Hederasaponin B, 3-O-α-L-Rhamnopyranosyl(1→2)-α-L-arabinopyranosyloleanolic acid-28-O-α-L-rhamnopyranosyl(1→4)-β-D-glucopyranosyl(1→6)-β-D-glucopyranosyl ester] | 172.3 ± 29.1 | 
C[C@@H]1O[C@@H](O[C@H]2[C@H](O[C@H]3CC[C@@]4(C)[C@@H](CC[C@]5(C)[C@@H]4CC=C4[C@@H]6CC(C)(C)CC[C@]6(C(=O)O[C@@H]6O[C@H](CO[C@@H]7O[C@H](CO)[C@@H](O[C@@H]8O[C@@H](C)[C@H](O)[C@@H](O)[C@H]8O)[C@H](O)[C@H]7O)[C@@H](O)[C@H](O)[C@H]6O)CC[C@]45C)[C@]3(C)CO)OC[C@H](O)[C@@H]2O)[C@H](O)[C@H](O)[C@H]1O [Kalopanaxsaponin B, 3-O-α-L-Rhamnopyranosyl(1→2)-α-L-arabinopyranosylhederagenin-28-O-α-L-rhamnopyranosyl(1→4)-β-D-glucopyranosyl(1→6)-β-D-glucopyranosyl ester] | 170.5 ± 24.6 | 
C[C@@H]1O[C@@H](O[C@H]2[C@H](OC[C@H]3O[C@@H](OC(=O)[C@]45CCC(C)(C)C[C@H]4C4=CC[C@@H]6[C@@]7(C)CC[C@H](O[C@@H]8OC[C@H](O)[C@H](O)[C@H]8O)[C@@](C)(CO)[C@@H]7CC[C@@]6(C)[C@]4(C)CC5)[C@H](O)[C@@H](O)[C@@H]3O)OC[C@@H](O)[C@@H]2O)[C@H](O)[C@H](O)[C@H]1O [Loniceroside A, 3-O-α-L-Arabinopyranosylhederagenin-28-O-α-L-rhamnopyranosyl(1→2)-β-D-xylopyranosyl(1→6)-β-D-glucopyranosyl ester] | 175.3 ± 21.1 | 
CC1OC(OC2C(OCC3OC(OC(=O)C45CCC(C)(C)CC4C4=CCC6C7(C)CCC(OC8OCC(O)C(O)C8OC8OC(C)C(O)C(O)C8O)C(C)(CO)C7CCC6(C)C4(C)CC5)C(O)C(O)C3O)OCC(O)C2O)C(O)C(O)C1O [Loniceroside B, 3-O-α-L-Rhamnopyranosyl(1→2)-α-L-arabinopyranosylhederagenin-28-O-α-L-rhamnopyranosyl(1→2)-β-D-xylopyranosyl(1→6)-β-D-glucopyranosyl ester] | 169.7 ± 25.4 | 
CC1(C)CC[C@]2(C(=O)O)CC[C@]3(C)C(=CC[C@@H]4[C@@]5(C)CC[C@H](O)C(C)(C)[C@@H]5CC[C@]43C)[C@@H]2C1 [Oleanolic acid, oleanolic acid, reference compound] | 149.4 ± 19.7 | times longer retention time than the negative control group (water) [2]: 2.4 times
